This assay has as its target T1, Recombinant human mPGES-1 (Homo sapiens, UniProt O14684).
T1 sequence (O14684 1-152): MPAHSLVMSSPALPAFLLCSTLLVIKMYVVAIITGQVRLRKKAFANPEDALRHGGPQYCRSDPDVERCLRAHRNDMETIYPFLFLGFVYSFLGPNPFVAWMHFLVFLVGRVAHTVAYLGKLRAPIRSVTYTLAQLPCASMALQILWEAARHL
The experiment in a line: In-vitro mPGES-1 enzyme inhibition assay (PGE2 formation from PGH2, HTRF detection). The assay is classed as biochemical. The settings on record: for inhibition at 1 µM: 1 μM test compound, read-out: Percentage inhibition at 1 μM; for inhibition at 1 µM / inhibition at 10 µM: recombinant human mPGES-1 microsomal fraction; for inhibition at 10 µM: 10 μM test compound, read-out: Percentage inhibition at 10 μM; for IC50: class symbols, selected examples. The method in brief: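 IC50 values were derived by nonlinear regression of percent inhibition relative to enzyme reactions run without inhibitor. PGE2 formed from PGH2 with GSH was quantified by antibody-based HTRF after stannous chloride quench. Enzyme source was human mPGES-1 microsomes at 40-60 μg/mL protein; DMSO 0.5% (v/v).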

As a reminder, the inhibition is how much of the control response was suppressed. In general, IC50 refers to the midpoint of a concentration-inhibition curve.

`Cc1cccc(Cl)c1Nc1nc2cc(C(=O)NC3(c4cccc(C(F)(F)F)c4)CC3)c3c(c2[nH]1)CC(C)(C)O3` [Example-132, 2-((2-Chloro-6-methylphenyl)amino)-7,7-dimethyl-N-(1-(3-(trifluoromethyl)phenyl)cyclopropyl)-7,8-dihydro-1H-benzofuro[4,5-d]imidazole-5-carboxamide]: the inhibition at 1 µM was 92.4%, the inhibition at 10 µM was determined as 98% and the IC50 is less than 50 nM.

Take `Cc1cccc(Cl)c1Nc1nc2cc(C(=O)Nc3ccc(F)c(C(F)(F)F)c3)c3c(c2[nH]1)CC(C)(C)O3` [Example-133, 2-((2-Chloro-6-methylphenyl)amino)-N-(4-fluoro-3-(trifluoromethyl)phenyl)-7,7-dimethyl-7,8-dihydro-1H-benzofuro[4,5-d]imidazole-5-carboxamide]: the inhibition at 1 µM turned out to be 91.4%, the inhibition at 10 µM turned out to be 96.5% and the IC50 is less than 50 nM.

`CC1(C)Cc2c(c(C(=O)Nc3cc(C4CC4)ccc3F)cc3nc(Nc4c(F)cccc4Cl)[nH]c23)O1` [Example-134, 2-((2-Chloro-6-fluorophenyl)amino)-N-(5-cyclopropyl-2-fluorophenyl)-7,7-dimethyl-7,8-dihydro-1H-benzofuro[4,5-d]imidazole-5-carboxamide]: the inhibition at 1 µM turned out to be 99.9%, the inhibition at 10 µM is 99.4% and the IC50 is less than 50 nM.

As for `Cc1cccc(Cl)c1Nc1nc2cc(C(=O)Nc3cc(C(F)F)ccc3F)c3c(c2[nH]1)CC(C)(C)O3` [Example-135, 2-((2-Chloro-6-methylphenyl)amino)-N-(5-(difluoromethyl)-2-fluorophenyl)-7,7-dimethyl-7,8-dihydro-1H-benzofuro[4,5-d]imidazole-5-carboxamide], the inhibition at 1 µM was found to be 97.5%, the inhibition at 10 µM came out at 98.6% and the IC50 is less than 50 nM.

As for `Cc1cccc(Cl)c1Nc1nc2cc(C(=O)Nc3cc(C4CC4)ccc3F)c3c(c2[nH]1)CC(C)(C)O3` [Example-136, 2-((2-Chloro-6-methylphenyl)amino)-N-(5-cyclopropyl-2-fluorophenyl)-7,7-dimethyl-7,8-dihydro-1H-benzofuro[4,5-d]imidazole-5-carboxamide], the inhibition at 1 µM worked out at 89.4%, the inhibition at 10 µM was found to be 96.9% and the 50% inhibitory concentration (IC50) is less than 50 nM.

Turning to `Cc1ccnc(Cl)c1Nc1nc2cc(C(=O)Nc3cccc(C(F)(F)F)c3)c3c(c2[nH]1)CC(C)(C)O3` [Example-137, 2-((2-Chloro-4-methylpyridin-3-yl)amino)-7,7-dimethyl-N-(3-(trifluoromethyl)phenyl)-7,8-dihydro-1H-benzofuro[4,5-d]imidazole-5-carboxamide], the inhibition at 1 µM was 95.3%, the inhibition at 10 µM turned out to be 100% and the IC50 was less than 50 nM.

As to `Cn1c(Nc2c(F)cccc2Cl)nc2cc(C(=O)Nc3cccc(C(F)(F)F)c3)c3c(c21)CC(C)(C)O3` [Example-139, 2-((2-Chloro-6-fluorophenyl)amino)-1,7,7-trimethyl-N-(3-(trifluoromethyl)phenyl)-7,8-dihydro-1H-benzofuro[4,5-d]imidazole-5-carboxamide], the inhibition at 1 µM amounted to 95.9%, the inhibition at 10 µM is 99.2% and the IC50 is less than 50 nM.

On to `CC1(C)Cc2c(c(C(=O)Nc3ccc(C4CC4)cc3)cc3nc(Nc4c(F)cccc4Cl)[nH]c23)O1` [Example-140, 2-((2-Chloro-6-fluorophenyl)amino)-N-(4-cyclopropylphenyl)-7,7-dimethyl-7,8-dihydro-1H-benzofuro[4,5-d]imidazole-5-carboxamide], for which the inhibition at 1 µM is 97.1%, the inhibition at 10 µM is 98.9% and the IC50 was less than 50 nM.

With `CC1(C)Cc2c(c(C(=O)Nc3cc(F)c(F)cc3F)cc3nc(Nc4c(Cl)cccc4Cl)[nH]c23)O1` [Example-141, 2-((2,6-Dichlorophenyl)amino)-7,7-dimethyl-N-(2,4,5-trifluorophenyl)-7,8-dihydro-1H-benzofuro[4,5-d]imidazole-5-carboxamide], the inhibition at 1 µM was found to be 96.4%, the inhibition at 10 µM is 98.6% and the IC50 is less than 50 nM.

As for `Cc1ccc(NC(=O)c2cc3nc(Nc4c(Cl)cccc4Cl)[nH]c3c3c2OC(C)(C)C3)c(F)c1` [Example-142, 2-((2,6-Dichlorophenyl)amino)-N-(2-fluoro-4-methylphenyl)-7,7-dimethyl-7,8-dihydro-1H-benzofuro[4,5-d]imidazole-5-carboxamide], the inhibition at 1 µM amounted to 97.9%, the inhibition at 10 µM stood at 97.5% and the IC50 was less than 50 nM.

For `CC1(C)Cc2c(c(C(=O)Nc3cccc(C(F)(F)F)c3)cc3nc(NC(=O)c4c(F)cccc4Cl)[nH]c23)O1` [Example-143, 2-(2-Chloro-6-fluorobenzamido)-7,7-dimethyl-N-(3-(trifluoromethyl)phenyl)-7,8-dihydro-1H-benzofuro[4,5-d]imidazole-5-carboxamide], the inhibition at 1 µM was 19.6% and the inhibition at 10 µM was found to be 39.2%.

For the compound `CC1(C)Cc2c(c(C(=O)Nc3cccc(C(F)(F)F)c3)cc3nc(NCc4ccccc4Cl)[nH]c23)O1` [Example-144, 2-((2-Chlorobenzyl)amino)-7,7-dimethyl-N-(3-(trifluoromethyl)phenyl)-7,8-dihydro-1H-benzofuro[4,5-d]imidazole-5-carboxamide], the inhibition at 1 µM amounted to 37.3% and the inhibition at 10 µM was 46%.

Take `CC1(C)Cc2c(c(C(=O)Nc3cc(C(F)(F)F)ccc3F)cc3nc(NCc4ccccc4Cl)[nH]c23)O1` [Example-145, 2-((2-Chlorobenzyl)amino)-N-(2-fluoro-5-(trifluoromethyl)phenyl)-7,7-dimethyl-7,8-dihydro-1H-benzofuro[4,5-d]imidazole-5-carboxamide]: the inhibition at 1 µM came out at 59.5% and the inhibition at 10 µM was 60.4%.

Consider `Cn1c(Nc2c(F)cccc2Cl)nc2cc(C(=O)Nc3ccc(C(F)(F)F)nc3)c3c(c21)CC(C)(C)O3` [Example-153, 2-((2-Chloro-6-fluorophenyl)amino)-1,7,7-trimethyl-N-(6-(trifluoromethyl)pyridin-3-yl)-7,8-dihydro-1H-benzofuro[4,5-d]imidazole-5-carboxamide], for which the inhibition at 1 µM was 100%, the inhibition at 10 µM came out at 99.9% and the IC50 was less than 50 nM.

For the compound `Cc1ccc(NC(=O)c2cc3nc(Nc4c(F)cccc4Cl)n(C)c3c3c2OC(C)(C)C3)c(F)c1` [Example-154, 2-((2-Chloro-6-fluorophenyl)amino)-N-(2-fluoro-4-methylphenyl)-1,7,7-trimethyl-7,8-dihydro-1H-benzofuro[4,5-d]imidazole-5-carboxamide], the inhibition at 1 µM came out at 99.8%, the inhibition at 10 µM came out at 100% and the IC50 was less than 50 nM.

Consider `Cn1c(Nc2c(F)cccc2Cl)nc2cc(C(=O)Nc3ccc(C(F)(F)F)c[n+]3[O-])c3c(c21)CC(C)(C)O3` [Example-155, 2-(2-((2-Chloro-6-fluorophenyl)amino)-1,7,7-trimethyl-7,8-dihydro-1H-benzofuro[4,5-d]imidazole-5-carboxamido)-5-(trifluoromethyl)pyridine 1-oxide], for which the inhibition at 1 µM is 87.9%, the inhibition at 10 µM was 99.8% and the IC50 was greater than 100 nM.

On to `CC(C)c1noc(-c2cc3nc(Nc4c(F)cccc4Cl)[nH]c3c3c2OC(C)(C)C3)n1` [Example-156, N-(2-Chloro-6-fluorophenyl)-5-(3-isopropyl-1,2,4-oxadiazol-5-yl)-7,7-dimethyl-7,8-dihydro-1H-benzofuro[4,5-d]imidazol-2-amine], for which the inhibition at 1 µM is 33.1% and the inhibition at 10 µM was determined as 92.2%.

As to `Cn1c(Nc2c(F)cccc2Cl)nc2cc(C(=O)Nc3ccc(C(F)(F)F)cn3)c3c(c21)CC(C)(C)O3` [Example-157, 2-((2-Chloro-6-fluorophenyl)amino)-1,7,7-trimethyl-N-(5-(trifluoromethyl)pyridin-2-yl)-7,8-dihydro-1H-benzofuro[4,5-d]imidazole-5-carboxamide], the inhibition at 1 µM stood at 98.9%, the inhibition at 10 µM was 99.7% and the IC50 was less than 50 nM.

As to `CC1(C)Cc2c(c(C(=O)Nc3ccc(C(F)(F)F)c[n+]3[O-])cc3nc(Nc4c(F)cccc4Cl)[nH]c23)O1` [Example-158, 2-(2-((2-Chloro-6-fluorophenyl)amino)-7,7-dimethyl-7,8-dihydro-1H-benzofuro[4,5-d]imidazole-5-carboxamido)-5-(trifluoromethyl)pyridine 1-oxide], the inhibition at 1 µM came out at 77% and the inhibition at 10 µM came out at 97.4%.

With `CC1(C)Cc2c(c(C(=O)Nc3cc(C4CC4)ccc3F)cc3nc(Nc4c(Cl)cccc4Cl)[nH]c23)O1` [Example-159, N-(5-Cyclopropyl-2-fluorophenyl)-2-((2,6-dichlorophenyl)amino)-7,7-dimethyl-7,8-dihydro-1H-benzofuro[4,5-d]imidazole-5-carboxamide], the inhibition at 1 µM was 98.9%, the inhibition at 10 µM is 100% and the IC50 is less than 50 nM.

For `Cc1cccc(Cl)c1Nc1nc2cc(C(=O)Nc3ccc(C(F)(F)F)nc3)c3c(c2[nH]1)CC(C)(C)O3` [Example-160, 2-((2-Chloro-6-methylphenyl)amino)-7,7-dimethyl-N-(6-(trifluoromethyl)pyridin-3-yl)-7,8-dihydro-1H-benzofuro[4,5-d]imidazole-5-carboxamide], the inhibition at 1 µM is 99.2%, the inhibition at 10 µM stood at 100% and the half-inhibitory concentration (IC50) was in the range of 50 to 100 nM.

Values taken from patent US8519149B2, “Tricyclic compounds as mPGES-1 inhibitors” (Glenmark Pharmaceuticals S.A., priority 2010, dated 2013).
